Data published in US20230219965A1 (KSQ Therapeutics, Inc., priority 2020, published 2023).
Where two headings read alike, the source gives them in different places.

Key:
USP1/UAF1 enzyme = USP1/UAF1 enzyme (Homo sapiens, UniProt O94782); assay: USP1/UAF1 deubiquitination assay (ubiquitin-rhodamine 110 substrate); assay type: biochemical; details: read-out: USP1 IC50 (Ub-Rho)
Outline: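 Cleavage of 150 nM ubiquitin-rhodamine 110 by 0.05 nM USP1/UAF1 was followed as fluorescence (Ex480/Em540, kinetic, 30 min) in Tris-HCl pH 7.8 buffer with EDTA, BSA, DTT and Tween-20. Compounds, top 10 μM, were preincubated with enzyme 10 min; % inhibition against no-enzyme and DMSO wells gave four-parameter IC50s.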

[1] = system: Ub-PCNA levels in the nucleus of ES2 cells (USP1 activity); assay: ES2 Ub-PCNA immunofluorescence (IF) assay; assay type: cell-based; details: Homo sapiens, ES-2; ES2 cells, 3 hours, Ub-PCNA immunofluorescence; read-out: USP1 IC50 (Ub-PCNA)
Outline: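 AC50 derived from percent Ub-PCNA-positive nuclei, positivity set by a 95% cutoff from untreated-well intensities. Readout by imaging immunofluorescence (anti-Ub-PCNA, DAPI nuclear mask) after methanol fixation. Compound exposure: 3 h at 37° C, 0.3% DMSO final, on cells plated overnight.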

[2] = ADME solubility determination in PBS at pH 2.0 and pH 7.4; assay type: physicochemical; details: phosphate buffered saline, 25 °C, thermodynamic from solid
Outline: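 Solubility was read by LC-MS/MS on centrifuged supernatants, calibrated to a known-concentration standard and corrected for dilution. Compound, dried down from 10 mM DMSO stock, was equilibrated 24 h at 25° C with shaking in PBS at pH 2.0 or pH 7.4.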

[3] = Liver microsomal metabolic stability, rat liver microsomes (RLM); details: rat, liver microsomes, t1/2 (min) in RLM, 1 μM compound, 1 mg/mL microsomes, NADPH
[4] = Liver microsomal metabolic stability, human liver microsomes (HLM); details: human, liver microsomes
Procedure: Samples were prepared by adding 222.5 μL of a master solution (100 mM phosphate buffer and 1 mg/mL liver microsomes (HLM or RLM)) and 25 μL of a 10 mM NADPH solution to incubation plates, which were then warmed for 10 min. Each compound was separately dissolved in DMSO to prepare 10 mM stock solutions, which were then diluted to 100 μM with acetonitrile. A reaction was started by adding 2.5 μL of the 100 μM solution of each compound to separate incubation plates such that the final concentration of for each compound in each plate was 1 μM.
25 μL aliquots of each sample were taken at 0.5, 5, 10, 15, 20 and 30 minutes, and the reaction was stopped by adding 5 volumes of cold acetonitrile with IS (100 nM alprazolam, 200 nM caffeine and 100 nM tolbutamide). The samples were then centrifuged at 3,220 G for 30 minutes, and 100 μL of the supernatant fluid was mixed with 100 μL of ultra-pure H2O.
The samples were then analyzed by LC-MS/MS. Peak areas were determined from extracted ion chromatograms. Slope values (k) were determined by linear regression of the natural logarithm of the remaining percentage of the compound vs. incubation time curve. The in vitro half-life (in vitro t1/2) was determined from the slope value using the following equation:

[5] = pH 2, aqueous buffer, PBS pH 2.0, 25° C., read-out: Solubility at pH 2.0
[6] = pH 7.4, aqueous buffer, PBS pH 7.4, 25° C., read-out: Solubility at pH 7.4

Chain of USP1/UAF1 enzyme (O94782 whole entry): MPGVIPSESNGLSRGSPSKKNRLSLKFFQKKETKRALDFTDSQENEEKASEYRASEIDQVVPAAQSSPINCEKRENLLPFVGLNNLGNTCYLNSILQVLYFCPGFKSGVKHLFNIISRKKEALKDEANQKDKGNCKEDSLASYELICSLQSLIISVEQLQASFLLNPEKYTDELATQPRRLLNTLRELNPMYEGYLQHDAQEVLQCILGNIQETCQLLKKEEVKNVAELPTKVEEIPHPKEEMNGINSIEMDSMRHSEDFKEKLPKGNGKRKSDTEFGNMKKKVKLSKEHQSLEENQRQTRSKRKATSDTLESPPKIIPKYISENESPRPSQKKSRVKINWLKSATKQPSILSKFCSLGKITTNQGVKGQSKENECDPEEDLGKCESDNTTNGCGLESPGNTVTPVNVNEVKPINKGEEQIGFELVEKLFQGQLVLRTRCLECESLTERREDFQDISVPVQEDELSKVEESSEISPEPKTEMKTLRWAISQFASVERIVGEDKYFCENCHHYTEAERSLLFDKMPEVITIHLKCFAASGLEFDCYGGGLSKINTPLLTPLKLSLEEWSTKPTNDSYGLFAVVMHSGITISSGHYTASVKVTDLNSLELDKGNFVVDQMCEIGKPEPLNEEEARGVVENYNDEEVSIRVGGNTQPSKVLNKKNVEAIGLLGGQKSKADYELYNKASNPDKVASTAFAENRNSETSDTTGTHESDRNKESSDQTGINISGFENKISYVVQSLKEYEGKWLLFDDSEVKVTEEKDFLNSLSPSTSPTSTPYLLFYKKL
Chain of USP1/UAF1 enzyme (Q8TAF3 whole entry partner): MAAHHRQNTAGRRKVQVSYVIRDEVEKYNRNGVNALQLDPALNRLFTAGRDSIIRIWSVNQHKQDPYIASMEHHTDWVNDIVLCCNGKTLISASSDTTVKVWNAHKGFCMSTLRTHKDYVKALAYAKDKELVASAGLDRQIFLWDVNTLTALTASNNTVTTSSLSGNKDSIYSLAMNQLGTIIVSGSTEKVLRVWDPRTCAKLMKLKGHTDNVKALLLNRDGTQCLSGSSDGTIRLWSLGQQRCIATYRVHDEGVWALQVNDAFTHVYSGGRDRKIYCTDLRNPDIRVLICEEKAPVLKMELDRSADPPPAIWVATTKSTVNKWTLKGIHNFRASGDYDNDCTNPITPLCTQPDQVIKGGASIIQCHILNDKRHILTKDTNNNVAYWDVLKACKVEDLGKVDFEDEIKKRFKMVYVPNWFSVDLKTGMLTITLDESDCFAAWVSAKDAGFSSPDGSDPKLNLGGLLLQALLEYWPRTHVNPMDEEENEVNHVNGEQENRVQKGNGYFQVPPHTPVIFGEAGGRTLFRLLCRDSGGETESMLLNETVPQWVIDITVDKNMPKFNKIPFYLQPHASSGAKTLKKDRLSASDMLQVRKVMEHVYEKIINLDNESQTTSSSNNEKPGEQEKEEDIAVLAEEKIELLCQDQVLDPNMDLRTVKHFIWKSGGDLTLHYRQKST

Row | IC50 (USP1/UAF1 enzyme) [nM] | IC50 [1] [nM] | solubility at 24 h [2, 5] [µM] | solubility at 24 h [2, 6] [µM] | half-life at 1 μM [3] [min] | half-life at 1 μM [4] [min] | Structure (SMILES)
1 | < 100 | < 100 | < 10 | < 10 | > 25 | > 25 | CC(C)n1ncc(Cl)c1-c1cc2n(n1)CCC(=O)N2Cc1ccc(-c2nc(C(F)(F)F)cn2C)cc1 [Example 98]
2 | < 100 | 100 to 500 | < 10 | < 10 | > 25 | > 25 | COc1ncnc(C2CC2)c1-c1cc2n(n1)CCC(=O)N2Cc1ccc(-n2nc(C(F)(F)F)cc2C)c(F)c1 [Example 103]
3 | < 100 | 100 to 500 | < 10 | < 10 | > 25 | > 25 | Cc1cc(C(F)(F)F)nn1-c1ccc(CN2C(=O)CCn3nc(-c4c(Cl)cnn4C(C)C)cc32)cc1F [Example 104]
4 | < 100 | < 100 | ≥ 10 | < 10 | > 25 | > 25 | COc1cc(CN2C(=O)CCn3nc(-c4c(OC)ncnc4C4CC4)cc32)ccc1-c1nc(C(F)(F)F)cn1C(C)C [Example 108]
5 | < 100 | < 100 | < 10 | < 10 | > 25 | > 25 | COc1cc(CN2C(=O)CCn3nc(-c4c(Cl)cnn4C(C)C)cc32)ccc1-c1nc(C(F)(F)F)cn1C(C)C [Example 109]
6 | < 100 | 100 to 500 | < 10 | < 10 | > 25 | > 25 | CCn1cc(C(F)(F)F)nc1-c1ccc(CN2C(=O)CCn3nc(-c4c(Cl)cnn4C(C)C)cc32)cn1 [Example 111]
7 | < 100 | < 100 | < 10 | < 10 | < 25 | < 25 | CCn1cc(C(F)(F)F)nc1-c1ccc(C(C)N2C(=O)CCn3nc(-c4c(Cl)cnn4C(C)C)cc32)cc1 (stereo not drawn) [Example 113]
8 | < 100 | 100 to 500 | ≥ 10 | ≥ 10 | < 25 | > 25 | CCn1cc(C(F)(F)F)nc1-c1ccc(C(C)N2C(=O)CCn3nc(-c4c(OC)ncnc4C4CC4)cc32)cc1 (stereo not drawn) [Example 114]
9 | < 100 | < 100 | < 10 | < 10 | > 25 | > 25 | CCOc1cc(C(F)(F)F)nn1-c1ccc(CN2C(=O)CCn3nc(-c4c(Cl)cnn4C(C)C)cc32)cc1 [Example 115]
10 | < 100 | 100 to 500 | < 10 | < 10 | > 25 | > 25 | CC(C)n1ncc(Cl)c1-c1cc2n(n1)CCC(=O)N2Cc1ccc(-c2cn(C)c(C(F)(F)F)n2)cc1 [Example 116]
11 | < 100 | < 100 | < 10 | < 10 | < 25 | < 25 | CCn1cc(Cl)nc1-c1ccc(CN2C(=O)CCn3nc(-c4c(Cl)cnn4C(C)C)cc32)cc1 [Example 118]
12 | < 100 | < 100 | < 10 | < 10 | < 25 | > 25 | CCn1cc(C(F)(F)F)nc1-c1ccc(C(C)N2C(=O)CCn3nc(-c4c(Cl)cnn4C(C)C)cc32)cc1F (stereo not drawn) [Example 119]
13 | < 100 | < 100 | < 10 | < 10 | > 25 | > 25 | CCn1cc(C(F)(F)F)nc1-c1ccc(C(C)N2C(=O)CCn3nc(-c4c(OC)ncnc4C4CC4)cc32)cc1F (stereo not drawn) [Example 120]
14 | 100 to 500 | > 500 | ≥ 10 | < 10 | > 25 | > 25 | COc1ncnc(C2CC2)c1-c1cc2n(n1)CCC(=O)N2[C@@H](C)c1ccc(-c2nc(C(F)(F)F)cn2C(C)C)cc1 [Example 122]
15 | < 100 | < 100 | ≥ 10 | < 10 | > 25 | > 25 | COc1ncnc(C2CC2)c1-c1cc2n(n1)CCC(=O)N2[C@H](C)c1ccc(-c2nc(C(F)(F)F)cn2C(C)C)cc1 [Example 123]
16 | 100 to 500 | > 500 | ≥ 10 | ≥ 10 | < 25 | < 25 | CCn1cc(C(F)(F)F)nc1-c1ccc([C@H](C)N2C(=O)CCn3nc(-c4c(OC)ncnc4C4CC4)cc32)cc1 [Example 124]
17 | < 100 | < 100 | ≥ 10 | < 10 | > 25 | > 25 | CCn1cc(C(F)(F)F)nc1-c1ccc([C@@H](C)N2C(=O)CCn3nc(-c4c(OC)ncnc4C4CC4)cc32)cc1 [Example 125]
18 | < 100 | < 100 | ≥ 10 | < 10 | < 25 | > 25 | COc1cc([C@@H](C)N2C(=O)CCn3nc(-c4c(OC)ncnc4C4CC4)cc32)ccc1-c1nc(C(F)(F)F)cn1C(C)C [Example 129]
19 | < 100 | < 100 | < 10 | < 10 | < 25 | < 25 | CCn1cc(C(F)(F)F)nc1-c1ccc(CN2C(=O)CCn3nc(-c4c(Cl)cnn4[C@H](C)COC)cc32)cc1F [Example 131]
20 | < 100 | < 100 | < 10 | < 10 | < 25 | < 25 | CCn1cc(C(F)(F)F)nc1-c1ccc(CN2C(=O)CCn3nc(-c4c(Cl)cnn4[C@@H](C)COC)cc32)cc1F [Example 132]
21 | < 100 | 100 to 500 | < 10 | < 10 | > 25 | > 25 | CC(C)n1ncc(Cl)c1-c1cc2n(n1)CCC(=O)N2Cc1ccc(-c2nn(C)cc2C#N)cc1 [Example 133]
22 | < 100 | < 100 | < 10 | < 10 | < 25 | < 25 | COc1cc(C)nn1-c1ccc(CN2C(=O)CCn3nc(-c4c(Cl)cnn4C(C)C)cc32)cc1 [Example 135]
23 | < 100 | 100 to 500 | < 10 | < 10 | > 25 | > 25 | CCn1cc(C(F)(F)F)nc1-c1ccc([C@@H](C)N2C(=O)CCn3nc(-c4c(Cl)cnn4C(C)C)cc32)cn1 [Example 139]
24 | < 100 | < 100 | ≥ 10 | < 10 | > 25 | > 25 | CCn1cc(C(F)(F)F)nc1-c1c(F)cc(CN2C(=O)CCn3nc(-c4c(OC)ncnc4C4CC4)cc32)cc1OC [Example 140]
25 | < 100 | < 100 | < 10 | < 10 | > 25 | > 25 | CCn1cc(C(F)(F)F)nc1-c1c(F)cc(CN2C(=O)CCn3nc(-c4c(Cl)cnn4C(C)C)cc32)cc1OC [Example 141]
26 | 100 to 500 | 100 to 500 | ≥ 10 | < 10 | < 25 | > 25 | CCn1cc(C(F)(F)F)nc1-c1ccc([C@H](C)N2C(=O)CCn3nc(-c4c(OC)ncnc4C4CC4)cc32)cc1F [Example 142]
27 | < 100 | < 100 | ≥ 10 | ≥ 10 | > 25 | > 25 | CCn1cc(C(F)(F)F)nc1-c1ccc([C@@H](C)N2C(=O)CCn3nc(-c4c(OC)ncnc4C4CC4)cc32)cc1F [Example 143]
28 | < 100 | < 100 | ≥ 10 | < 10 | > 25 | > 25 | COc1cc(CN2C(=O)CCn3nc(-c4c(OC)ncnc4C4CC4)cc32)cc(F)c1-c1nc(C(F)(F)F)cn1C(C)C [Example 144]
29 | < 100 | < 100 | < 10 | < 10 | < 25 | < 25 | CCn1cc(C(F)(F)F)nc1-c1c(Cl)cc(CN2C(=O)CCn3nc(-c4c(OC)ncnc4C4CC4)cc32)cc1OC [Example 145]
